# Laboratory results as given in ChEMBL document CHEMBL3044935, “Synthesis and in vitro microbiological evaluation of novel 2,4-diaryl-3-azabicyclo[3.3.1]nonan-9,5-spiro-1,2,4-triazolidine-3-thiones” (2012).
# Experiments:
# Format in all cases: functional
# Klebsiella pneumoniae = assay: Antimicrobial activity against Klebsiella pneumoniae after 24 hr by two-fold serial dilution method
# Nannizzia gypsea = assay: Antimicrobial activity against Microsporum gypseum after 72 to 96 hr by two-fold serial dilution method
# Escherichia coli = assay: Antimicrobial activity against Escherichia coli after 24 hr by two-fold serial dilution method
# Shigella flexneri = assay: Antimicrobial activity against Shigella flexneri after 24 hr by two-fold serial dilution method
# Salmonella typhi = assay: Antimicrobial activity against Salmonella enterica subsp. enterica serovar Typhi after 24 hr by two-fold serial dilution method
# Aspergillus flavus = assay: Antimicrobial activity against Aspergillus flavus after 72 to 96 hr by two-fold serial dilution method
# Staphylococcus aureus = assay: Antimicrobial activity against Staphylococcus aureus after 24 hr by two-fold serial dilution method
# Streptococcus = assay: Antimicrobial activity against beta-hemolytic Streptococcus after 24 hr by two-fold serial dilution method
# Mucor = assay: Antimicrobial activity against Mucor after 72 to 96 hr by two-fold serial dilution method
# Rhizopus = assay: Antimicrobial activity against Rhizopus after 72 to 96 hr by two-fold serial dilution method
# Vibrio cholerae = assay: Antimicrobial activity against Vibrio cholerae after 24 hr by two-fold serial dilution method
SMILES,MIC (Klebsiella pneumoniae) [µg/mL],MIC (Nannizzia gypsea) [µg/mL],MIC (Escherichia coli) [µg/mL],MIC (Shigella flexneri) [µg/mL],MIC (Salmonella typhi) [µg/mL],MIC (Aspergillus flavus) [µg/mL],MIC (Staphylococcus aureus) [µg/mL],MIC (Streptococcus) [µg/mL],MIC (Mucor) [µg/mL],MIC (Rhizopus) [µg/mL],MIC (Vibrio cholerae) [µg/mL]
COc1ccc(C2NC(c3ccc(OC)cc3)C3CCCC2C32NNC(=S)N2)cc1 (stereo not drawn),12.5,50,100,25,200,100,100,100,50,25,50
S=C1NNC2(N1)C1CCCC2C(c2ccccc2)NC1c1ccccc1 (stereo not drawn),100,200,200,100,50,100,100,100,200,200,50
Fc1ccc(C2NC(c3ccc(F)cc3)C3CCCC2C32NNC(=S)N2)cc1 (stereo not drawn),6.25,6.25,100,50,100,6.25,6.25,12.5,100,12.5,12.5
S=C1NNC2(N1)C1CCCC2C(c2ccc(Cl)cc2)NC1c1ccc(Cl)cc1 (stereo not drawn),100,12.5,12.5,100,12.5,12.5,12.5,50,12.5,25,25
S=C1NNC2(N1)C1CCCC2C(c2ccc(Br)cc2)NC1c1ccc(Br)cc1 (stereo not drawn),100,25,100,50,12.5,6.25,12.5,6.25,12.5,12.5,25
O=[N+]([O-])c1ccc(C2NC(c3ccc([N+](=O)[O-])cc3)C3CCCC2C32NNC(=S)N2)cc1 (stereo not drawn),50,12.5,100,50,100,25,12.5,12.5,25,12.5,25
Cc1ccc(C2NC(c3ccc(C)cc3)C3CCCC2C32NNC(=S)N2)cc1 (stereo not drawn),200,50,200,200,50,200,50,50,100,50,50
O=C(O)c1cn(C2CC2)c2cc(N3CCNCC3)c(F)cc2c1=O [CIPROFLOXACIN],12.5,,25,25,25,,12.5,12.5,,,25
OC(Cn1cncn1)(Cn1cncn1)c1ccc(F)cc1F [FLUCONAZOLE],,12.5,,,,25,,,12.5,25,
